# Entries after “also recorded” stand apart in the source; their conditions may differ.
# B1: GM-CSF: recombinant mouse GM-CSF, lymphokine customarily used to stimulate myelocytes (protein, UniProt P01587 18-141, looked up)
# Granulocyte-macrophage …: APTRSPITVTRPWKHVEAIKEALNLLDDMPVTLNEEVEVVSNEFSFKKLTCVQTRLKIFEQGLRGNFTKLKGALNMTASYYQTYCPPTPETDCETQVTTYADFIDSLKTFLTDIPFECKKPGQK
# What was measured:
# [1] = tested on: circulating myelocytes (HSC); experiment: Mobilization of HSC after combined oral treatment with AZT and Muradimetide (Example 4); type: in vivo, mice; details: for effect on the mobilization of HSC (myelocyte count, FIG. 11): MDM 25 mg/kg, AZT 50 mg/kg or mixture, oral, days 0-3 and 7-10 (2 weeks); for No. of circulating myelocytes: p.o., one compound alone at 0 h (AZT 50 mg/Kg or Muradimetide 25 mg/Kg), 24 hours after 4 daily administrations
# Description: Table 3 below and FIG. 11 show the effect of an oral treatment of mice with Muradimetide before, at the same time as or after AZT administered at 50 mg per kg, on the number of circulating myelocytes tested 24 hours after 4 daily administrations.
# The mean number of circulating myelocytes before the treatment lies between 3 and 15×10^4 cells per ml in the 5 groups.
# The "P-value" was calculated by the Mann Whitney U Rank test.
# circulating myelocytes = experiment: Comparison of oral Muradimetide with MDPA after intravenous AZT, myelocyte count (Example 10); type: in vivo, female Swiss mice; details: AZT 40 mg per kg i.v. days 0-3; MDPA 25 mg per kg 4 hours before AZT
# Description: In this experiment, female Swiss mice were treated intravenously with 40 mg per kg of AZT on days 0, 1, 2 and 3. Groups of 5 mice received on the same four days, and 4 hours before AZT, either physiological saline, or MDPA at a dose of 25 mg per kg or Muradimetide orally at a dose of 25 mg per kg. Myelocyte counts were carried out on days 0, 2, 3, 4 and 8. The asterisks above the histograms have the same meaning as in the previous diagrams.
# [2] = tested on: circulating neutrophils, leukocytes, monocytes and myelocytes; experiment: Comparison of Muradimetide and GM-CSF after intravenous AZT (Example 9); type: in vivo, female Swiss mice; details: AZT 40 mg per kg i.v. days 0-3; for HSC in the blood (circulating myelocytes, FIG. 7) / leukocyte and neutrophil counts: Muradimetide 25 mg per kg or mGM-CSF 125 μg per kg i.v. 4 hours before
# Description: FIGS. 4, 5, 6 and 7 show the effect of a treatment of mice with Muradimetide or with mGM-CSF on the changes in the circulating neutrophils, in the circulating leukocytes or in the circulating monocytes or in the circulating myelocytes, respectively, after an intravenous administration of AZT.
# Female Swiss mice were treated intravenously with 40 mg per kg of AZT on days 0, 1, 2 and 3. The groups of mice (5 per group) receive, 4 hours before AZT, either physiological saline, or Muradimetide at 25 mg per kg or mGM-CSF at 125 μg per kg intravenously. Counts are done on days 0, 2, 3, 4 and 8. The asterisks above the histograms indicate that there is a significant difference in the count compared to the values obtained before the treatment on day 0.
# [3] = tested on: normal circulating leukocytes (predominantly neutrophils and lymphocytes) and immature circulating leukocytes (myelocytes); experiment: Muradimetide administered alone intravenously for 4 consecutive days, circulating cell counts (Example 1); type: in vivo, mice; details: for No. of Lymphocytes / No. of Myelocytes / No. of Neutrophils: 25 mg/kg i.v.; for No. of Lymphocytes / No. of Myelocytes / No. of Neutrophils / No. of Leukocytes: 4 consecutive days; for No. of Leukocytes: Muradimetide 25 mg/kg i.v.
# Description: Table 1 below depicts the leukocyte, neutrophil, lymphocyte and myelocyte counts as a function of the time after treatment with Muradimetide alone administered at a dose of 25 mg/kg. The treatment is performed for 4 consecutive days by intravenous injection.
# [4] = tested on: circulating leukocytes, neutrophils and myelocytes; experiment: Oral Muradimetide with nonmyelotoxic or myelotoxic intravenous doses of AZT, cell counts (Example 8); type: in vivo, female Swiss mice; details: Muradimetide 25 mg per kg orally 4 hours before AZT i.v. 5 or 40 mg per kg, days 0-3
# Description: In this experiment female Swiss mice were injected intravenously with AZT at a dose of 5 or 40 mg per kg on days 0, 1, 2 and 3. On each of the 4 days, and 4 hours before the administration of AZT, groups of mice consisting of 5 individuals received orally either buffer or Muradimetide at a dose of 25 mg per kg.
# Cell counts are done on days 0, 1, 2, 3, 4 and 7.
# FIG. 3 represents the same experiment in which the myelocytes are counted.
# [5] = tested on: circulating HSC (GM-CFU, LPP-CFU, HPP-CFU, CAFC, LTC-IC); experiment: Mobilization of HSC by stage of differentiation, culture of blood mononuclear cells (Example 7); type: in vivo, Balb/c mice; details: AZT 50 mg/kg, MDM 25 mg/kg or mixture once daily for three days; blood 24 hours after last administration
# Description: In all cases, the culture conditions, especially their duration, were chosen to permit an optimal detection of the different populations in question. For this study, the effect of injecting saline (X--), AZT at 50 mg/kg, MDM at 25 mg/kg and the mixture of the two on the number of circulating HSC were compared. The mononuclear cells after purification were cultured for 5 days in order to count the GM-CFU (for granulocyte-macrophage colony forming units), for 28 days to count the low proliferating potential (LPP) colony forming units and the high proliferating potential (HPP) CFU. The CAFC were counted after 14 days of culture. The LTC-IC after 28 days. The results are presented in FIGS. 14a, 14b, 14c and 14d, respectively. The mice (10 Balb/c per group) received once daily and for three consecutive days either physiological saline, or AZT, or MDM or the mixture of the two under the above dose conditions. Twenty-four hours after the last administration, the blood of all the mice in each group was collected. For the experiments depicted in FIGS. 14a, 14b and 14c, the mononuclear cells were then separated on density gradients and cultured in a semisolid medium for a period of 5 days for the GM-CFU and 28 days for the LPP-CFU. […]
# red cells and platelets = experiment: 7-day oral treatment with AZT, muradimetide or both, red cell and platelet counts (Example 3); type: in vivo; details: p.o. once daily for 7 consecutive days; AZT 100 mg/kg, muradimetide 50 mg/kg or both; counts up to day 10
# Description: The effect of a 7-day treatment on the number of red cells and of platelets is seen in FIGS. 9 and 10, respectively. The counts are shown as a percentage of those obtained on day 0. Female BALB/c mice (5 per group) are treated once daily for 7 consecutive days with 100 mg/kg of AZT (Δ), 50 mg/kg of muradimetide (.quadrature.) or simultaneously with 100 mg/kg of AZT and 50 mg/kg of muradimetide (.largecircle.). Platelet or red cell counts were done on day 0 and up to 10 days following the beginning of the treatment. No toxicity on the platelets is seen, either with AZT, muradimetide or the mixture of these compounds. The upward trend in their number is apparent between days 4 and 5.
# [6] = tested on: circulating leukocytes, neutrophils and myelocytes; experiment: Intravenous or oral Muradimetide, cell counts modified by intravenous AZT (Example 2); type: in vivo, male CDI mice
# Description: Treatment with AZT alone classically induces a decrease in the number of circulating leukocytes and neutrophils. This decrease is followed by a restoration occurring approximately 4 to 7 days after the beginning of the treatment. When Muradimetide has been administered systemically or orally after a treatment with 40 mg/kg of AZT, there is no fall in the number of cells and, on the contrary, there is a multiplication by at least 1.5 of the number of leukocytes and a tripling of the number of neutrophils, this already occurring after 4 days.
# Male CDI mice (5 per group) were injected with AZT at a dose of 40 mg per kg on days 0 to 3. Muradimetide is administered on the same days at a dose of 10 mg per kg intravenously or 50 mg per kg orally. Cell counts are done an day 0 (before the treatment) and on days 3 and 4.
# [7] = Muradimetide i.v. 10 mg/kg with AZT i.v. 40 mg/kg, day 0 (before the treatment)
# [8] = Muradimetide i.v. 10 mg/kg with AZT i.v. 40 mg/kg, day 3
# [9] = Muradimetide i.v. 10 mg/kg with AZT i.v. 40 mg/kg, day 4
# [10] = Muradimetide p.o. 50 mg/Kg with AZT i.v. 40 mg/kg, day 0 (before the treatment)
# [11] = Muradimetide p.o. 50 mg/Kg with AZT i.v. 40 mg/kg, day 3
# [12] = Muradimetide p.o. 50 mg/Kg with AZT i.v. 40 mg/kg, day 4
# [13] = Muradimetide systemically or orally after treatment with 40 mg/kg of AZT, after 4 days
molecule,measurement,setting,value
"Cc1cn([C@H]2C[C@H](N=[N+]=[N-])[C@@H](CO)O2)c(=O)[nH]c1=O [AZT, 3'-azido-3'-deoxythymidine, reference compound]","effect on the mobilization of HSC (myelocyte count, FIG. 11)",[1],no effect
same,No. of circulating myelocytes,[1],6 ± 8 × 10^4 /ml
"CC(=O)N[C@H]1C(O)O[C@H](CO)[C@@H](O)[C@@H]1O[C@H](C)C(=O)N[C@@H](C)C(=O)N[C@H](CCC(=O)O)C(=O)O (stereo partly drawn) [MDPA, Nac--Mur--L--Ala--D--Glu]","antimyelotoxic effect and mobilization of HSC in the blood circulation (myelocyte count, FIG. 8)",circulating myelocytes,not occurring
"COC(=O)CC[C@@H](NC(=O)[C@H](C)NC(=O)[C@@H](C)O[C@H]1[C@H](O)[C@@H](CO)OC(O)[C@@H]1NC(C)=O)C(=O)OC (stereo partly drawn) [Muradimetide, Nac--Mur--L--Ala--D--Glu--[OCH3]--OCH3]","HSC in the blood (circulating myelocytes, FIG. 7)",[2],very strong elevation; also recorded: mobilizes HSC
same,leukocyte and neutrophil counts,[2],markedly pronounced effect
same,No. of Lymphocytes,[3]; day 0,38 ± 12 × 10^5 /ml
same,No. of Myelocytes,[3]; day 0,7 ± 6 × 10^4 /ml
same,No. of Neutrophils,[3]; day 0,11 ± 3 × 10^5 /ml
same,No. of Lymphocytes,[3]; day 2,41 ± 17 × 10^5 /ml
same,No. of Myelocytes,[3]; day 2,8 ± 8 × 10^4 /ml
same,No. of Neutrophils,[3]; day 2,10 ± 3 × 10^5 /ml
same,No. of Lymphocytes,[3]; day 3,35 ± 13 × 10^5 /ml
same,No. of Myelocytes,[3]; day 3,40 ± 5 × 10^4 /ml
same,No. of Neutrophils,[3]; day 3,13 ± 5 × 10^5 /ml
same,No. of Lymphocytes,[3]; day 4,34 ± 8 × 10^5 /ml
same,No. of Myelocytes,[3]; day 4,72 ± 27 × 10^4 /ml
same,No. of Neutrophils,[3]; day 4,12 ± 4 × 10^5 /ml
same,No. of Lymphocytes,[3]; day 7,38 ± 10 × 10^5 /ml
same,No. of Myelocytes,[3]; day 7,4 ± 4 × 10^4 /ml
same,No. of Neutrophils,[3]; day 7,12 ± 4 × 10^5 /ml
same,No. of Leukocytes,[3]; day 2,52 ± 12 × 10^5 /ml
same,No. of Leukocytes,[3]; day 3,52 ± 17 × 10^5 /ml
same,No. of Leukocytes,[3]; day 4,52 ± 15 × 10^5 /ml
same,No. of Leukocytes,[3]; day 7,50 ± 13 × 10^5 /ml
same,No. of Leukocytes,[3]; day of measurement 0,50 ± 14 × 10^5 /ml
same,increase in the number of circulating myelocytes,"[3]; Muradimetide administered alone, days 3 and 4",highly significant
same,"time of maximum effect on leukocyte, neutrophil and myelocyte counts (FIGS. 1-3)",[4],4 days
same,"effect on the number of circulating HSC (GM-CFU, LPP-CFU, HPP-CFU, CAFC; FIGS. 14a-14d)",[5],clearly apparent
same,toxicity on the platelets,red cells and platelets,No toxicity
same,Leukocytes,"[6]; Muradimetide i.v. 10 mg/kg days 0-3 with AZT i.v. 40 mg/kg, day 0 (before the treatment)",6.0 ± 3.4 × 10^6 /ml
same,Leukocytes,"[6]; Muradimetide i.v. 10 mg/kg days 0-3 with AZT i.v. 40 mg/kg, day 3",5.9 ± 2.9 × 10^6 /ml
same,Leukocytes,"[6]; Muradimetide i.v. 10 mg/kg days 0-3 with AZT i.v. 40 mg/kg, day 4",7.6 ± 1.6 × 10^6 /ml
same,Myelocytes,[6]; [7],5 ± 7 × 10^4 /ml
same,Neutrophils,[6]; [7],2.0 ± 1.3 × 10^6 /ml
same,Myelocytes,[6]; [8],145 ± 83 × 10^4 /ml
same,Neutrophils,[6]; [8],1.5 ± 0.8 × 10^6 /ml
same,Myelocytes,[6]; [9],117 ± 46 × 10^4 /ml
same,Neutrophils,[6]; [9],4.6 ± 1.5 × 10^6 /ml
same,Leukocytes,"[6]; Muradimetide p.o. 50 mg/Kg days 0-3 with AZT i.v. 40 mg/kg, day 0 (before the treatment)",4.8 ± 0.4 × 10^6 /ml
same,Leukocytes,"[6]; Muradimetide p.o. 50 mg/Kg days 0-3 with AZT i.v. 40 mg/kg, day 3",6.1 ± 1.4 × 10^6 /ml
same,Leukocytes,"[6]; Muradimetide p.o. 50 mg/Kg days 0-3 with AZT i.v. 40 mg/kg, day 4",8.1 ± 2.9 × 10^6 /ml
same,Myelocytes,[6]; [10],14 ± 13 × 10^4 /ml
same,Neutrophils,[6]; [10],1.4 ± 0.5 × 10^6 /ml
same,Myelocytes,[6]; [11],123 ± 55 × 10^4 /ml
same,Neutrophils,[6]; [11],1.6 ± 0.5 × 10^6 /ml
same,Myelocytes,[6]; [12],138 ± 59 × 10^4 /ml
same,Neutrophils,[6]; [12],4.3 ± 2.47 × 10^6 /ml
same,increase of the number of neutrophils,[6]; [13],tripling
same,multiplication of the number of leukocytes,[6]; [13],at least 1.5
same,percentage of myelocytes or of promyelocytes,"[6]; with AZT 40 mg/kg i.v., irrespective of mode of administration of Muradimetide",spectacular increase
same,"effect on the mobilization of HSC (myelocyte count, FIG. 11)",[1],significant effect
same,No. of circulating myelocytes,[1],17 ± 15 × 10^4 /ml
B1,"HSC in the blood (circulating myelocytes, FIG. 7)",[2],does not do so
same,leukocyte and neutrophil counts,[2],do not display an increase
same,number of monocytes,[2]; mGM-CSF 125 μg per kg i.v. 4 hours before,increase in the number of monocytes

# Source: US6267968A, “MDP derivatives and conjugates having haematipoietic function stimulating activity, and compositions containing same” (Vacsyn S.A., priority 1995, dated 2001)
